US9943498B2, “Fe(III) complex compounds for the treatment and prophylaxis of iron deficiency symptoms and iron deficiency anemias” (Vifor (International) AG, priority 2010, dated 2018)

system: Male NMRI (SPF) mice fed a low-iron diet; test: Fe utilization in iron-deficient mouse model; assay type: in vivo; conditions: male NMRI mice on low-iron diet (approx. 5 ppm iron); 2 mg iron/kg body weight/day by stomach tube, days 1-5 and 8-12; utilization on day 15 calculated from hemoglobin and body weight increase versus control group
Protocol: The excellent Fe utilizations that can be accomplished through the Fe complexes according to the invention were measured by means of the following mouse model.
Male NMRI (SPF) mice (approximately 3 weeks old) were fed a low-iron diet (approx. 5 ppm iron) for approximately 3 weeks. The iron complexes were then administered to them by means of a stomach tube (2 mg iron/kg body weight/day) for 2 times 5 days, with an interruption of 2 days (days 1-5 and 8-12). Utilization on day 15 was calculated from the hemoglobin increase and the body weight increase in accordance with the formula
[formula] • 0.07=Factor for 70 ml blood per kg body weight (BW) • 0.0034=Factor for 0.0034 g Fe/g Hb • Hb1=Hemoglobin level (g/I) on day 1 • Hb2(3)=Hemoglobin level (g/I) on day 8 (or 15) • BW4=body weight (g) on day 1 • BW9(14)=body weight (g) on day 8 (or 15) • Hb1 Control=average hemoglobin level (g/I) on day 1 in the control group, • Hb2(3) Control=average hemoglobin level (g/I) on day 8 (or 15) in the control group, • BW4 Control=average body weight (g) on day 1 in the control group, • BW9(14) Control=average body weight (g) on day 8 (or 15) in the control group, • Fe Dos.=entire administered iron (mg Fe) over 5 or 10 days, • Fe ut.=(Hb2(3)*BW9(14)-Hb1*BW4)*0.07*0.0034 (mg Fe) Δ Utilization=Fe tot. utilized (examined group)—Fe ut. Control group, utilized from food, (mg Fe)

| Substance | Utilization n 15 d (abs. %) |
| --- | --- |
| Tris(3-oxo-2-(piperidin-1-ylcarbonyl)butanenitrile)-iron(III) Complex [Example 5] | 61 abs. % |
| Tris(3-oxoheptaneamide)-iron(III) Complex [Example 10] | 45 abs. % |
| Tris(3-oxopentaneamide)-iron(III) Complex [Example 18] | 81 abs. % |
| Tris(N,N-dibutyl-3-oxobutaneamide)-iron(III) Complex [Example 8] | 69 abs. % |
| Tris(N,N-dimethyl-3-oxoheptaneamide)-iron(III) Complex [Example 17] | 48 abs. % |
| Tris(N,N-dimethyl-3-oxopentaneamide)-iron(III) Complex [Example 19] | 73 abs. % |
| Tris(N-butyl-3-oxobutaneamide)-iron(III) Complex [Example 7] | 41 abs. % |
| Tris(N-methyl-3-oxoheptaneamide)-iron(III) Complex [Example 11] | 75 abs. % |
| Tris-(1-(2,6-dimethylmorpholin-4-yl]butane-1,3-dione)-iron(III)-complex [Example 59] | 80 abs. % |
| Tris-(1-(3-hydroxypiperidin-1-yl)butane-1,3-dione)-iron(III)-complex [Example 47] | 61 abs. % |
| Tris-(1-(4-Hydroxypiperidin-1-yl)-4-methylpentane-1,3-dione)-iron(III)-complex [Example 64] | 79 abs. % |
| Tris-(1-(4-hydroxypiperidin-1-yl)-butane-1,3-dione)-iron(II) complex [Example 14] | 68 abs. % |
| Tris-(1-(4-hydroxypiperidin-1-yl)pentane-1,3-dione)-iron(III)-complex [Example 61] | 73 abs. % |
| Tris-(1-(morpholin-4-yl)butane-1,3-dione)-iron(III)-complex [Example 33] | 69 abs. % |
| Tris-(1-(morpholin-4-yl)pentane-1,3-dione)-iron(III)-complex [Example 62] | 68 abs. % |
| Tris-(1-(piperidin-1-yl)-butane-1,3-dione)-iron(III) Complex [Example 9] | 54 abs. % |
| Tris-(1-[4-(2-hydroxyethyl)piperazin-1-yl]butane-1,3-dione)-iron(III)-complex [Example 52] | 84 abs. % |
| Tris-(1-[4-(hydroxymethyl)piperidin-1-yl]butane-1,3-dione)-iron(III)-complex [Example 48] | 53 abs. % |
| Tris-(1-[(3S)-3-hydroxypyrrolidin-1-yl]butane-1,3-dione)-iron(III)-complex [Example 51] | 78 abs. % |
| Tris-(2-Fluoro-3-oxo-N-propylbutanamide)-iron(III)-complex [Example 23] | 88 abs. % |
| Tris-(2-Fluoro-N,N-dimethyl-3-oxobutanamide)-iron(II)-complex [Example 22] | 78 abs. % |
| Tris-(3-acetyl-1-methylpiperidin-2-one)-iron(III)-complex [Example 31] | 71 abs. % |
| Tris-(3-acetyl-1-methylpyrrolidin-2-one)-iron(III)-complex [Example 28] | 73 abs. % |
| Tris-(3-oxo-N,N-dipropylbutaneamide)-iron(III) Complex [Example 15] | 68 abs. % |
| Tris-(3-oxo-N-(propan-2-yl)butanamide)-iron(III)-complex [Example 36] | 79 abs. % |
| Tris-(3-oxobutaneamide)-iron(III) Complex [Example 1] | 61 abs. % |

| Substance | Utilization n 15 d (abs. %) |
| --- | --- |
| Tris-(4-Methoxy-1-(morpholin-4-yl)butane-1,3-dione)-iron(III)-complex [Example 27] | 88 abs. % |
| Tris-(4-Methoxy-N,N-dimethyl-3-oxobutanamide)-iron(III)-complex [Example 24] | 70 abs. % |
| Tris-(4-Methyl-1-(morpholin-4-yl)-pentane-1,3-dione)-iron(III)-complex [Example 26] | 64 abs. % |
| Tris-(Ethyl (1-methyl-2-oxopyrrolidin-3-yl)(oxo)acetate)-iron(III)-complex [Example 29] | 79 abs. % |
| Tris-(N,N,4-Trimethyl-3-oxopentanamide)-iron(III)-complex [Example 25] | 60 abs. % |
| Tris-(N,N-bis-(2-hydroxyethyl)-3-oxobutaneamide)-iron(III) Complex [Example 12] | 35 abs. % |
| Tris-(N,N-diethyl-3-oxobutaneamide)-iron(III) Complex [Example 2] | 41 abs. % |
| Tris-(N,N-dimethyl-3-oxobutaneamide)-iron(III) Complex [Example 3] | 95 abs. % |
| Tris-(N-(1-hydroxy-2-methylpropan-2-yl)-3-oxobutanamide)-iron(III)-complex [Example 41] | 68 abs. % |
| Tris-(N-(2,3-dihydroxypropyl)-3-oxobutanamide)-iron(III)-complex [Example 46] | 78 abs. % |
| Tris-(N-(2-Hydroxyethyl)-N,4-dimethyl-3-oxopentanamide)-iron(11)-complex [Example 65] | 73 abs. % |
| Tris-(N-(2-hydroxyethyl)-N-methyl-3-oxobutanamide)-iron(III)-complex [Example 42] | 30 abs. % |
| Tris-(N-(2-hydroxypropyl)-3-oxobutanamide)-iron(III)-complex [Example 43] | 75 abs. % |
| Tris-(N-(2-methoxyethyl)-3-oxobutanamide)-iron(III)-complex [Example 34] | 32 abs. % |
| Tris-(N-(3-hydroxypropyl)-3-oxobutanamide)-iron(III)-complex [Example 38] | 77 abs. % |
| Tris-(N-(3-hydroxypropyl)-N-methyl-3-oxobutanamide)-iron(III)-complex [Example 54] | 76 abs. % |
| Tris-(N-(4-hydroxybutyl)-3-oxobutanamide)-iron(III)-complex [Example 39] | 66 abs. % |
| Tris-(N-(morpholin-4-yl)-3-oxobutanamide)-iron(III)-complex [Example 60] | 80 abs. % |
| Tris-(N-(trans-4-hydroxycyclohexyl)-3-oxobutanamide)-iron(III)-complex [Example 55] | 84 abs. % |
| Tris-(N-Butyl-3-oxoheptanamide)-iron(III)-complex [Example 63] | 71 abs. % |
| Tris-(N-Cyclopropyl-3-oxobutanamide)-iron(III)-complex [Example 35] | 44 abs. % |
| Tris-(N-butyl-N-methyl-3-oxobutaneamide)-iron(ill) Complex [Example 13] | 71 abs. % |
| Tris-(N-hexyl-3-oxobutaneamide)-iron(III) Complex [Example 16] | 60 abs. % |
| Tris-(N-methyl-3-oxobutaneamide)-iron(III) Complex [Example 4] | 90 abs. % |
| Tris-(ethyl 4-(dimethylamino)-2,4-dioxobutanoate)-iron(III)-complex [Example 32] | 81 abs. % |
| Tris-(ethyl N-(3-oxobutanoyl)glycinate)-iron(l) complex (Tris((3-Oxo-butyrylamino)ethyl acetate)iron) [Example 20] | 77 abs. % |

same assay, conditions: mouse, in vivo

| Substance | Utilization n 15 d (abs. %) |
| --- | --- |
| Tris-(2-chloro-N-methyl-3-oxobutaneamide)-iron(III) Complex [Example 6] | 57 abs. % |
| Tris-(N-(1-hydroxypropan-2-yl)-3-oxobutanamide)-iron(III)-complex [Example 44] | 73 abs. % |
| Tris-(N-(2-hydroxyethyl)-3-oxobutanamide)-iron(III)-complex [Example 37] | 34 abs. % |
| Tris-(N-(5-hydroxypentyl)-3-oxobutanamide)-iron(III)-complex [Example 40] | 87 abs. % |
